{
  "source": "paper PMC11532980",
  "about": "“Solvation free energy in governing equations for DNA hybridization, protein–ligand binding, and protein folding” (FEBS Open Bio, 2024)",
  "biological_target": "T1, ribonuclease A (RNase A) (Bos taurus, UniProt P61823)",
  "T1 construct": "gene RNASE1; native enzyme from bovine pancreas, commercial; mature secreted protein (signal peptide removed), no tag",
  "T1 sequence (P61823 27-150)": "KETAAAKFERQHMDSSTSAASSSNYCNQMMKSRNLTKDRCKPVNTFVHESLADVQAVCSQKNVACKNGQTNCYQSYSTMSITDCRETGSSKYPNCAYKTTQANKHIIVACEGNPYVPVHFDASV",
  "assay": "isothermal titration calorimetry",
  "format": "binding",
  "settings": "25 mM Bis-Tris, 25 mM KCl, pH 6.0, 25 °C; K per RNase A concentration (five concentrations, up to 0.6 mM); ligand from disodium salt; y-intercept of −RTlnK versus complex concentration (extrapolated t)",
  "data": [
    {"molecule": "O=c1ccn([C@@H]2O[C@H](CO)[C@@H](OP(=O)(O)O)[C@H]2O)c(=O)[nH]1", "note": "[3′‐UMP]", "values": [
      {"measurement": "ΔG°", "result": "-6.46 ± 0.03", "unit": "kcal/mol"}
    ]}
  ]
}
